Measurements reported in patent publication US11230526B1, “Cylcoalkenyl derivatives useful as agonists of the GPR120 and/or GPR40 receptors” (Janssen Pharmaceutica NV, priority 2018, dated 2022).

Tests used:
Human GPR120 short form = target: T1, Human GPR120 short form (Homo sapiens, UniProt Q5NUL3); assay: Human GPR120 calcium flux assay, Procedure Calcium B (4200 cells/well); assay type: cell-based
T1 construct: expressed in transfected cells
T1 sequence (Q5NUL3 1-361): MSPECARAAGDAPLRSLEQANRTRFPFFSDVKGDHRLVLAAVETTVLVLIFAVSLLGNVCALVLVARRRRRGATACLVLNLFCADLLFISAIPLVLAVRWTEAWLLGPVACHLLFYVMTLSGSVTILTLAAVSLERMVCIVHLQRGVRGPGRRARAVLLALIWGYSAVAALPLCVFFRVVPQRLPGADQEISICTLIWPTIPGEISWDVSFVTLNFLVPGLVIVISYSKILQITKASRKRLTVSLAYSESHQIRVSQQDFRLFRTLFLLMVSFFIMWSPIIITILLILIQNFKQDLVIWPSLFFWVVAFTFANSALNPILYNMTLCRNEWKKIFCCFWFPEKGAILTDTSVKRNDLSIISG
Description: Human GPR120 in Calcium Flux Assay
These cells are first loaded with the Ca^+2 sensitive dye, Fluo-4 NW. Upon stimulation, intracellular released Ca^+2 can bind to the dye and alter its fluorescence intensity. This increase in fluorescence signal, and thus the flux in intracellular [Ca^2+], is detected and quantitated by fluorescence imaging using a FLIPR reader. The effect of the agonist is measured as a function of concentration and used to calculate an EC50 based upon a response curve.
In this procedure 4200 cells/well were employed.
A Human GPR120 clone (Genbank accession number NM_001195755.1) was placed into the pcDNA3.1 mammalian expression vector carrying the neomycin resistance gene. A stable mammalian cell was generated by placing the above clone into a HEK293 background. […] Cells were split 2 times a week to keep the cells in the log-phase growth. […]
The assay was performed on a FLIPR plate reader using the following parameters. Baseline was read for 10 seconds at 1 sec intervals. The program was set to transfer 10 μL of ligand from compound plate to cell plate after baseline reading. Aspiration was executed at: 10 μL/sec speed, 4.6 μL height, Dispensing was executed at: 30 μL/sec speed, 45 μL height. After compound addition, each well was read for 300 sec, with measurements collected at 1 sec intervals.
The kinetic data from the FLIPR was based upon a 5 minute window for data collection. The fluorescence of each sample well was used for individual calculations of a normalized RFU value, which was defined as maximum response minus the minimum response. The normalized fluorescence reading (RFU) was calculated as follows: RFU=Fmax−Fmin
The Fitting Equation was: Y=Bottom+(Top-Bottom)/(1+10^((Log EC50−X)*HillSlope)), where X is the log of the concentration and Y is the response.

human GPR40 = target: T2, human GPR40 (Homo sapiens, UniProt O14842); assay: GPR40 calcium flux assay, human GPR40; assay type: cell-based; settings: HEK293 cells stably expressing GPR40; table does not say human or rat
T2 construct: expressed in transfected cells
Description: Compounds were tested in a calcium flux assay using transfected HEK293 cells stably expressing either human GPR40 or rat GPR40. Human GPR40 expressing cells were cultured in DMEM−High Glucose media supplemented with 10% fetal bovine serum, 1×L-Glutamine, 1×Penicillin/Streptomycin and 500 μg/mL G418. Rat GPR40 expressing cells were cultured in DMEM−High Glucose media supplemented with 10% fetal bovine serum and 1 μg/mL puromycin. Cells were plated into poly-D-lysine coated 384-well plates and cultured overnight in a 37° C. humidified tissue culture incubator under 5% CO2/[…] atmosphere.
On the day of the experiment, the culture media was replaced with assay buffer (HBSS, 20 mM HEPES, 0.1% BSA) and the cells incubated at 37° C. for 1 h. Calcium-sensitive fluorescent dye (Fluo 8 No-Wash Calcium Dye, ABD Bioquest) was then added and the cells incubated for another 30 min at 37° C. followed by 15 min at room temperature while protected from the light. The cell plate and a plate of diluted compounds of Formula (I) were loaded into a fluorescent plate reader that added compounds onto the cells while measuring the fluorescence intensity of each well. The plate reader recorded fluorescence intensity at 1 second intervals for 8 min and provided the data for analysis in an Excel format. EC50 values were calculated using Prism (GraphPad) software.

T2 sequence (O14842 whole entry): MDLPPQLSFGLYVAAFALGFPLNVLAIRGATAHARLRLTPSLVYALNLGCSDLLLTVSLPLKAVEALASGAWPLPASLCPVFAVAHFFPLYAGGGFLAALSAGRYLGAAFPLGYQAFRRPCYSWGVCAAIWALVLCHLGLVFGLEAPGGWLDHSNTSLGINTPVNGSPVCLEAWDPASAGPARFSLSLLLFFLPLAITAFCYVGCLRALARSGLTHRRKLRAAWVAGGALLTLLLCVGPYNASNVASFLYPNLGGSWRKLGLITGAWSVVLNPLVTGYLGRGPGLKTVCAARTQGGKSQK

| EC50 (Human GPR120 short form) [nM] | EC50 (human GPR40) [nM] | Compound |
| --- | --- | --- |
| 4640 | > 5000 | O=C(O)CCc1cc(F)c(OCC2=C(c3ccco3)CCC2)c(F)c1 [Compound 209, 3-[3,5-difluoro-4-[[2-(2-furyl)cyclopenten-1-yl]methoxy]phenyl]Propanoic Acid] |
| 304 | > 5000 | Cc1ccc(C2=C(COc3ccc(CCC(=O)O)cc3C)CCC2)o1 [Compound 211, 3-[3-methyl-4-[[2-(5-methyl-2-furyl)cyclopenten-1-yl]methoxy]phenyl]Propanoic Acid] |
| > 5000 | > 5000 | Cc1ccc(C2=C(COc3c(F)cc(CCC(=O)O)cc3F)CCC2)o1 [Compound 212, 3-[3,5-difluoro-4-[[2-(5-methyl-2-furyl)cyclopenten-1-yl]methoxy]phenyl]Propanoic Acid] |
| 776 | > 5000 | Cc1ccc(C2=C(COc3ccc(CCC(=O)O)cc3)CCC2)c(O)c1 [Compound 213] |
| 89 | > 5000 | COc1ccc(C2=C(COc3ccc(CCC(=O)O)cc3C)CCC2)cn1 [Compound 218, 3-[4-[[2-(6-methoxy-3-pyridyl)cyclopenten-1-yl]methoxy]-3-methyl-phenyl]Propanoic Acid] |
| 1120 | > 5000 | CCOc1ccc(C2=C(COc3ccc(CCC(=O)O)c(C)c3C)CCC2)cn1 [Compound 219, 3-[4-[[2-(6-ethoxy-3-pyridyl)cyclopenten-1-yl]methoxy]-2,3-dimethyl-phenyl]Propanoic Acid] |
| 160 | > 5000 | COc1ccc(C2=C(COc3ccc(CCC(=O)O)c(C)c3C)CCC2)cn1 [Compound 220, 3-[4-[[2-(6-methoxy-3-pyridyl)cyclopenten-1-yl]methoxy]-2,3-dimethyl-phenyl]Propanoic Acid] |
| 160 | > 5000 | COc1ccc(C2=C(COc3c(F)cc(CCC(=O)O)cc3F)CCC2)cn1 [Compound 221, 3-[3,5-difluoro-4-[[2-(6-methoxy-3-pyridyl)cyclopenten-1-yl]methoxy]phenyl]Propanoic Acid] |
| 356 | > 5000 | Cc1cc(CCC(=O)O)cc(F)c1OCC1=C(c2ccc(F)cc2)CCC1 [Compound 227, 3-[3-fluoro-4-[[2-(4-fluorophenyl)cyclopenten-1-yl]methoxy]-5-methyl-phenyl]Propanoic Acid] |
| 1050 | > 5000 | Cc1cc(CCC(=O)O)cc(Cl)c1OCC1=C(c2ccc(F)cc2)CC(F)(F)C1 [Compound 229, 3-[3-chloro-4-[[4,4-difluoro-2-(4-fluorophenyl)cyclopenten-1-yl]methoxy]-5-methyl-phenyl]Propanoic Acid] |
| 1870 | > 5000 | O=C(O)CCc1ccc(OCC2=C(C3=CCCCC3)CCC2)cc1 [Compound 230, 3-[4-[[2-(cyclohexen-1-yl)cyclopenten-1-yl]methoxy]phenyl]Propanoic Acid] |
| > 5000 | > 5000 | Cc1cc(CCC(=O)O)ccc1OCC1=C(c2ccco2)CC(F)(F)C1 [Compound 232, 3-[4-[[4,4-difluoro-2-(2-furyl)cyclopenten-1-yl]methoxy]-3-methyl-phenyl]Propanoic Acid] |
| 752 | 2930 | CCCC#CC1=C(COc2ccc(CCC(=O)O)cc2)CCC1 [Compound 233] |
| 1140 | > 5000 | Cc1ccc(C2=C(COc3ccc(CCC(=O)O)cc3)CCC2)cc1O [Compound 234] |
| 668 | > 5000 | O=C(O)CCc1cc(Cl)c(OCC2=C(c3ccc(F)cc3)CCC2)c(Cl)c1 [Compound 235, 3-[3,5-dichloro-4-[[2-(4-fluorophenyl)cyclopenten-1-yl]methoxy]phenyl]Propanoic Acid] |
| 1270 | > 5000 | Cc1cc(CCC(=O)O)cc(Cl)c1OCC1=C(c2ccc(F)cc2)CCC1 [Compound 236, 3-[3-chloro-4-[[2-(4-fluorophenyl)cyclopenten-1-yl]methoxy]-5-methyl-phenyl]Propanoic Acid] |
| > 5000 | 923 | N#Cc1cc(OCC2=C(c3ccc(F)cc3)CCC2)ccc1CCC(=O)O [Compound 237, 3-[2-cyano-4-[[2-(4-fluorophenyl)cyclopenten-1-yl]methoxy]phenyl]Propanoic Acid] |
| 435 | > 5000 | Cc1cc(CCC(=O)O)ccc1OCC1=C(C2=CCOCC2)CCC1 [Compound 238, 3-[4-[[2-(3,6-dihydro-2H-pyran-4-yl)cyclopenten-1-yl]methoxy]-3-methyl-phenyl]Propanoic Acid] |
| 403 | > 5000 | Cc1c(CCC(=O)O)ccc(OCC2=C(C3=CCOCC3)CCC2)c1C [Compound 239, 3-[4-[[2-(3,6-dihydro-2H-pyran-4-yl)cyclopenten-1-yl]methoxy]-2,3-dimethyl-phenyl]Propanoic Acid] |
| 388 | 187 | O=C(O)CCc1ccc(OCC2=C(c3ccc(F)cc3)CCC2)cc1C(F)(F)F [Compound 240, 3-[4-[[2-(4-fluorophenyl)cyclopenten-1-yl]methoxy]-2-(trifluoromethyl)phenyl]Propanoic Acid] |
| 173 | 222 | O=C(O)CCc1ccc(OCC2=C(c3ccccc3)CC(F)(F)C2)cc1C(F)(F)F [Compound 241] |
| 146 | 836 | O=C(O)CCc1ccc(OCC2=C(c3ccccc3)CC(F)(F)C2)cc1Cl [Compound 242, 3-[2-chloro-4-[(4,4-difluoro-2-phenyl-cyclopenten-1-yl)methoxy]phenyl]Propanoic Acid] |
| > 5000 | 90 | Cc1cc(Cl)ccc1C1=C(COc2ccc(CCC(=O)O)c(C(F)(F)F)c2)CCC1 [Compound 243, 3-[4-[[2-(4-chloro-2-methyl-phenyl)cyclopenten-1-yl]methoxy]-2-(trifluoromethyl)phenyl]Propanoic Acid] |
| 2240 | 799 | Cc1ccc(C2=C(COc3cc(C)c(CCC(=O)O)cc3F)CCC2)c(C)c1 [Compound 244, 3-[4-[[2-(2,4-dimethylphenyl)cyclopenten-1-yl]methoxy]-5-fluoro-2-methyl-phenyl]Propanoic Acid] |
| 2000 | 1910 | Cc1ccc(C2=C(COc3ccc(CCC(=O)O)cc3)CCC2)c(C)c1 [Compound 245, 3-[4-[[2-(2,4-dimethylphenyl)cyclopenten-1-yl]methoxy]phenyl]Propanoic Acid] |
| 3130 | 358 | Cc1ccc(C2=C(COc3ccc(CCC(=O)O)c(Cl)c3)CCC2)c(C)c1 [Compound 246, 3-[2-chloro-4-[[2-(2,4-dimethylphenyl)cyclopenten-1-yl]methoxy]phenyl]Propanoic Acid] |
| 3060 | 388 | Cc1ccc(C2=C(COc3ccc(CCC(=O)O)c(C(F)(F)F)c3)CCC2)c(C)c1 [Compound 247, 3-[4-[[2-(2,4-dimethylphenyl)cyclopenten-1-yl]methoxy]-2-(trifluoromethyl)phenyl]Propanoic Acid] |
| 361 | 188 | O=C(O)CCc1ccc(OCC2=C(c3ccc(Cl)cc3)CC(F)(F)C2)cc1C(F)(F)F [Compound 248, 3-[4-[[2-(4-chlorophenyl)-4,4-difluoro-cyclopenten-1-yl]methoxy]-2-(trifluoromethyl)phenyl]Propanoic Acid] |
